Where a name gives a salt, the structure may show the parent alone.
Molecular target: T1, human NaV1.8 (hNaV1.8) ion channel (Homo sapiens, UniProt Q9Y5Y9)
T1 construct: expressed in transfected cells
Test: Inhibition of Human NaV1.8 stably expressed in SH-SY-5Y cells (membrane potential dye fluorescence assay)
Type: cell-based
Conditions: SH-SY-5Y cells stably expressing hNaV1.8; FLIPR membrane potential dye; 10 μM pyrethroid, 250 nM TTX; test range 100 μM-0.05 μM; read-out: hNav1.8 IC50

T1 sequence (Q9Y5Y9 whole entry): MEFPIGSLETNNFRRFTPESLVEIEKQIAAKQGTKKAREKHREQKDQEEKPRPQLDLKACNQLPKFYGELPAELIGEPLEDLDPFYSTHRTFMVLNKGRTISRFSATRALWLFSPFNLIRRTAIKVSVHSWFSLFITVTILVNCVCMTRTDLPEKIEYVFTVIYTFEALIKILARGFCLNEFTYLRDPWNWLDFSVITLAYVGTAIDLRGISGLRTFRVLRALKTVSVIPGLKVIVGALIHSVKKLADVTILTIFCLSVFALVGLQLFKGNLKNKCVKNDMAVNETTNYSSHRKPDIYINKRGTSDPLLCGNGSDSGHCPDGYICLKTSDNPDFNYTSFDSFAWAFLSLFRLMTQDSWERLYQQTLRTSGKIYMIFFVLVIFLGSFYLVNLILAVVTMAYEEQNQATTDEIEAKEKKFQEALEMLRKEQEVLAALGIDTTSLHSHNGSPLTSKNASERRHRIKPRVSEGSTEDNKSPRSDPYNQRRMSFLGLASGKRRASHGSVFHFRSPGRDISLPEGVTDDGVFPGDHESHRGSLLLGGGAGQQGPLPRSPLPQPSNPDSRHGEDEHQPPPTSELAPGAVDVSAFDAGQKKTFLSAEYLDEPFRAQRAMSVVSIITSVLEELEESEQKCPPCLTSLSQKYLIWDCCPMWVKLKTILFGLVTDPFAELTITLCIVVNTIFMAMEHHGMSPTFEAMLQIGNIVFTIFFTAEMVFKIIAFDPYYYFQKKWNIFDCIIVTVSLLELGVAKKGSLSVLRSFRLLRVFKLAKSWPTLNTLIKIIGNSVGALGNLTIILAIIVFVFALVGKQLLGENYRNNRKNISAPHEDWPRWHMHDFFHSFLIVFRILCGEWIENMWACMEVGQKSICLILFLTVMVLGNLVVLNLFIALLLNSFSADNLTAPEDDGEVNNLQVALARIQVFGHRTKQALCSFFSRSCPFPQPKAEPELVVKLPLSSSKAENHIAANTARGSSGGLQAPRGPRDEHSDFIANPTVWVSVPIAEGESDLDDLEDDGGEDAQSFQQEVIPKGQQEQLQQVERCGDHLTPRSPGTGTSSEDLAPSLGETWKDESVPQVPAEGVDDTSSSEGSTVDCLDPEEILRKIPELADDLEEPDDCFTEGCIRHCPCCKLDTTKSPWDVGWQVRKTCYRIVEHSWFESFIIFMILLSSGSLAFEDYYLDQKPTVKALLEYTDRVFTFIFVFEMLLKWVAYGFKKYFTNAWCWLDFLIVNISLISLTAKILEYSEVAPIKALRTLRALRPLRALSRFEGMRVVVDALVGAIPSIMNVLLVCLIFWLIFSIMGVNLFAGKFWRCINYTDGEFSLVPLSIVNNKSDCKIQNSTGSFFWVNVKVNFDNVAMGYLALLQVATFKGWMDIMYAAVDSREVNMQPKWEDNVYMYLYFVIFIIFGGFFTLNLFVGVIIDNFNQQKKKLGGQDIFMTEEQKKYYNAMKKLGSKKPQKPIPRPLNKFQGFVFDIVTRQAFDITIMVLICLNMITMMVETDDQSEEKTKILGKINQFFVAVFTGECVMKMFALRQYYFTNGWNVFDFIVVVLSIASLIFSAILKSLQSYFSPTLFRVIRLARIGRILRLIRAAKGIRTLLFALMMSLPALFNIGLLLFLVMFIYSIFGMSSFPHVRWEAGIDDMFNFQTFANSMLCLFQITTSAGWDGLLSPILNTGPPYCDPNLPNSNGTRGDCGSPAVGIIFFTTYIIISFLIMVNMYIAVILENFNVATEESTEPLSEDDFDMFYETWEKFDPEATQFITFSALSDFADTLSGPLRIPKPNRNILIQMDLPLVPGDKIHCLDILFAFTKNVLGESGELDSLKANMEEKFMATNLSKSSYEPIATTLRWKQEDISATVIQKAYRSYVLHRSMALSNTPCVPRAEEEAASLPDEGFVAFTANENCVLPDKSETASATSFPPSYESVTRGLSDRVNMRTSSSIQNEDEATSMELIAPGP

Compound | IC50
CC(c1ccc(F)cc1)N(C)C1CN(C(=O)Nc2cccc(Oc3ccccc3)c2)C1 (stereo not drawn) [Example 109, 3-{[1-(4-Fluoro-phenyl)-ethyl]-methyl-amino}-azetidine-1-carboxylic acid (3-phenoxy-phenyl)-amide] | 470 nM
Cc1ccccc1C(C)N(C)C1CN(C(=O)Nc2ccc(C(F)(F)F)cc2)C1 (stereo not drawn) [Example 110, 3-[Methyl-(1-o-tolyl-ethyl)-amino]-azetidine-1-carboxylic acid (4-trifluoromethyl-phenyl)-amide] | 2240 nM
Cc1cc(F)ccc1C(C)NC1CN(C(=O)Nc2ccc(Oc3ccccc3)cc2)C1 (stereo not drawn) [Example 111, 3-[1-(4-Fluoro-2-methyl-phenyl)-ethylamino]-azetidine-1-carboxylic acid (4-phenoxy-phenyl)-amide] | 630 nM
Cc1cc(F)ccc1C(C)NC1CN(C(=O)Nc2cccc(Oc3ccccc3)c2)C1 (stereo not drawn) [Example 112, 3-[1-(4-Fluoro-2-methyl-phenyl)-ethylamino]-azetidine-1-carboxylic acid (3-phenoxy-phenyl)-amide] | 660 nM
Cc1cc(F)ccc1C(C)NC1CN(C(=O)Nc2cccc(C(F)(F)F)c2)C1 (stereo not drawn) [Example 113, 3-[1-(4-Fluoro-2-methyl-phenyl)-ethylamino]-azetidine-1-carboxylic acid (3-trifluoromethyl-phenyl)-amide] | 2840 nM
Cc1cc(F)ccc1C(C)NC1CN(C(=O)Nc2ccc(C(F)(F)F)cc2)C1 (stereo not drawn) [Example 114, 3-[1-(4-Fluoro-2-methyl-phenyl)-ethylamino]-azetidine-1-carboxylic acid (4-trifluoromethyl-phenyl)-amide] | 2300 nM
COc1ccc(C(C)NC2CN(C(=O)Nc3ccc(C(F)(F)F)cc3)C2)cc1 (stereo not drawn) [Example 115, 3-[1-(4-Methoxy-phenyl)-ethylamino]-azetidine-1-carboxylic acid (4-trifluoromethyl-phenyl)-amide] | 2430 nM
Cc1cc(F)ccc1C(C)N(C)C1CN(C(=O)Nc2ccc(Oc3ccccc3)cc2)C1 (stereo not drawn) [Example 117, 3-{[1-(4-Fluoro-2-methyl-phenyl)-ethyl]-methyl-amino}-azetidine-1-carboxylic acid (4-phenoxy-phenyl)-amide] | 890 nM
Cc1cccc(C(C)NC2CN(C(=O)Nc3ccc(Oc4ccccc4)cc3)C2)c1 (stereo not drawn) [Example 118, 3-(1-m-Tolyl-ethylamino)-azetidine-1-carboxylic acid (4-phenoxy-phenyl)-amide] | 430 nM
Cc1cc(F)ccc1C(C)NC1CN(C(=O)Nc2ccc(Oc3ccc(F)cc3)cc2)C1 (stereo not drawn) [Example 119, 3-[1-(4-Fluoro-2-methyl-phenyl)-ethylamino]-azetidine-1-carboxylic acid [4-(4-fluoro-phenoxy)-phenyl]-amide] | 460 nM
CC(NC1CN(C(=O)Nc2ccc(Oc3ccccc3)cc2)C1)c1ccc(N2CCCCC2)cc1 (stereo not drawn) [Example 120, 3-[1-(4-Piperidin-1-yl-phenyl)-ethylamino]-azetidine-1-carboxylic acid (4-phenoxy-phenyl)-amide] | 590 nM
Cc1ccc(C(C)NC2CN(C(=O)Nc3ccc(Oc4ccccc4)cc3)C2)cc1 (stereo not drawn) [Example 121, 3-(1-p-Tolyl-ethylamino)-azetidine-1-carboxylic acid (4-phenoxy-phenyl)-amide] | 400 nM
Cc1ccc(C(C)NC2CN(C(=O)Nc3ccc(C(F)(F)F)cc3)C2)cc1 (stereo not drawn) [Example 122, 3-(1-p-Tolyl-ethylamino)-azetidine-1-carboxylic acid (4-trifluoromethyl-phenyl)-amide] | 1700 nM
O=C(Nc1ccc(Oc2ccccc2)cc1)N1CC(NC2COc3ccccc32)C1 (stereo not drawn) [Example 123, 3-(2,3-Dihydro-benzofuran-3-ylamino)-azetidine-1-carboxylic acid (4-phenoxy-phenyl)-amide] | 1700 nM
CC(NC1CN(C(=O)Nc2ccc(C(F)(F)F)cc2)C1)c1ccccc1Cl (stereo not drawn) [Example 124, 3-[1-(2-Chloro-phenyl)-ethylamino]-azetidine-1-carboxylic acid (4-trifluoromethyl-phenyl)-amide] | 2480 nM
CC(NC1CN(C(=O)Nc2ccc(C(F)(F)F)cc2)C1)c1ccc(C#N)cc1 (stereo not drawn) [Example 126, 3-[1-(4-Cyano-phenyl)-ethylamino]-azetidine-1-carboxylic acid (4-trifluoromethyl-phenyl)-amide] | 23700 nM
CC(NC1CN(C(=O)Nc2ccc(Oc3ccc(F)cc3)cc2)C1)c1ccc(C#N)cc1 (stereo not drawn) [Example 127, 3-[1-(4-Cyano-phenyl)-ethylamino]-azetidine-1-carboxylic acid [4-(4-fluoro-phenoxy)-phenyl]-amide] | 2110 nM
O=C(Nc1ccc(Oc2ccccc2)cc1)N1CC(NCc2c(F)cccc2F)C1 [Example 128, 3-(2,6-Difluoro-benzylamino)-azetidine-1-carboxylic acid (4-phenoxy-phenyl)-amide] | 830 nM
O=C(Nc1ccc(Oc2ccc(F)cc2)cc1)N1CC(NCc2c(F)cccc2F)C1 [Example 129, 3-(2,6-Difluoro-benzylamino)-azetidine-1-carboxylic acid [4-(4-fluoro-phenoxy)-phenyl]-amide] | 1490 nM
CC(NC1CN(C(=O)Nc2ccc(Oc3ccccc3)cc2)C1)c1c(F)cccc1F (stereo not drawn) [Example 130, 3-[1-(2,6-Difluoro-phenyl)-ethylamino]-azetidine-1-carboxylic acid (4-phenoxy-phenyl)-amide] | 750 nM
CC(NC1CN(C(=O)Nc2ccc(Oc3ccc(F)cc3)cc2)C1)c1c(F)cccc1F (stereo not drawn) [Example 131, 3-[1-(2,6-Difluoro-phenyl)-ethylamino]-azetidine-1-carboxylic acid [4-(4-fluoro-phenoxy)-phenyl]-amide] | 530 nM
O=C(Nc1ccc(Oc2ccccc2F)cc1)N1CC(NC2CCc3cc(Cl)ccc32)C1 (stereo not drawn) [Example 133, 3-(5-Chloro-indan-1-ylamino)-azetidine-1-carboxylic acid [4-(2-fluoro-phenoxy)-phenyl]-amide] | 1550 nM
COc1ccc2c(c1)CCC2NC1CN(C(=O)Nc2ccc(Oc3cccc(F)c3)cc2)C1 (stereo not drawn) [Example 134, 3-(5-Methoxy-indan-1-ylamino)-azetidine-1-carboxylic acid [4-(3-fluoro-phenoxy)-pheny]-amide] | 170 nM
O=C(Nc1ccc(Oc2ccc(F)cc2)nc1)N1CC(NC2CCc3cc(F)ccc32)C1 (stereo not drawn) [Example 135, 3-(5-Fluoro-indan-1-ylamino)-azetidine-1-carboxylic acid [6-(4-fluoro-phenoxy)-pyridin-3-yl]-amide methanesulfonate salt] | 2170 nM
O=C(Nc1ccc(Oc2ccc(F)cc2)cc1)N1CC(NC2CCc3cc(F)ccc32)C1 (stereo not drawn) [Example 136, 3-(5-Fluoro-indan-1-ylamino)-azetidine-1-carboxylic acid [4-(4-fluoro-phenoxy)-phenyl]-amide methanesulfonate salt] | 210 nM
O=C(Nc1ccc(Oc2ccccc2)cc1)N1CC(NC2CCc3cc(F)ccc32)C1 (stereo not drawn) [Example 137, 3-(5-Fluoro-indan-1-ylamino)-azetidine-1-carboxylic acid (4-phenoxy-phenyl)-amide fumarate salt] | 270 nM
O=C(Nc1ccc(Oc2ccc(F)cc2)cc1)N1CC(NC2CCc3cc(Cl)ccc32)C1 (stereo not drawn) [Example 138, 3-(5-Chloro-indan-1-ylamino)-azetidine-1-carboxylic acid [4-(4-fluoro-phenoxy)-phenyl]-amide methanesulfonate salt] | 430 nM

Source: US20100105651A1, “ANTAGONISTS OF SNS SODIUM CHANNELS” (priority 2005, published 2010)
